By IC50 is commonly meant the concentration that inhibits the measured activity by half.

Consider 4 compounds from ChEMBL document CHEMBL4354785, “Recent insights into natural product inhibitors of matrix metalloproteinases” (Medchemcomm, 2019).

For assay [1], the target named is 72 kDa type IV collagenase (Homo sapiens, UniProt P08253). Briefly: Inhibition of recombinant human MMP2 using fluorescently conjugated gelatin as substrate.
In assay [2] the target is T1, Matrix metalloproteinase-9 (Homo sapiens, UniProt P14780). Description: Inhibition of human MMP9 (107 to 707 residues) expressed in Escherichia coli BL21(DE3) cells.
The target in assay [3] is T1, Matrix metalloproteinase-9. Description: Inhibition of human MMP9 catalytic domain using Mca-PLGL-Dpa-AR-NH2 as substrate by fluorescence method.

T1 sequence (P14780 whole entry, the tested form may be a part): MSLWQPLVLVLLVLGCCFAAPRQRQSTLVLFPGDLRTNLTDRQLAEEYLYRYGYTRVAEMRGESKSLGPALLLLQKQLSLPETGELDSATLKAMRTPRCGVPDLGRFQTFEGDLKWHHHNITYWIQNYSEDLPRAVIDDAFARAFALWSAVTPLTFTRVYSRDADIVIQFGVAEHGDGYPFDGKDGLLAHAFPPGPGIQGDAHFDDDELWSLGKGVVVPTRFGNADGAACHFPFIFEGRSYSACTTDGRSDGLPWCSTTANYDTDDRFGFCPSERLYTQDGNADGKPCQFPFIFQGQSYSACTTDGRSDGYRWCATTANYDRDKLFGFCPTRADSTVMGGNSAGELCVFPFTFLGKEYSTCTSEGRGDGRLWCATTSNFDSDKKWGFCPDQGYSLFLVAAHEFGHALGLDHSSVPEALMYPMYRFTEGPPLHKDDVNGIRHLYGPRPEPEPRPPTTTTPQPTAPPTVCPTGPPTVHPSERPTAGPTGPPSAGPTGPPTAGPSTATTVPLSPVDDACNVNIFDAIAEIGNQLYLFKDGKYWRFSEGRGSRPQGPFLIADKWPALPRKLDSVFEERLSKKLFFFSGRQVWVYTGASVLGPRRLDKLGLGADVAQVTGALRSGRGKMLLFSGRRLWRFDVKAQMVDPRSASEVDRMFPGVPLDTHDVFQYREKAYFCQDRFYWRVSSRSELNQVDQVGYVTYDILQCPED
72 kDa type IV collagenase, sequence (P08253 whole entry, the tested form may be a part): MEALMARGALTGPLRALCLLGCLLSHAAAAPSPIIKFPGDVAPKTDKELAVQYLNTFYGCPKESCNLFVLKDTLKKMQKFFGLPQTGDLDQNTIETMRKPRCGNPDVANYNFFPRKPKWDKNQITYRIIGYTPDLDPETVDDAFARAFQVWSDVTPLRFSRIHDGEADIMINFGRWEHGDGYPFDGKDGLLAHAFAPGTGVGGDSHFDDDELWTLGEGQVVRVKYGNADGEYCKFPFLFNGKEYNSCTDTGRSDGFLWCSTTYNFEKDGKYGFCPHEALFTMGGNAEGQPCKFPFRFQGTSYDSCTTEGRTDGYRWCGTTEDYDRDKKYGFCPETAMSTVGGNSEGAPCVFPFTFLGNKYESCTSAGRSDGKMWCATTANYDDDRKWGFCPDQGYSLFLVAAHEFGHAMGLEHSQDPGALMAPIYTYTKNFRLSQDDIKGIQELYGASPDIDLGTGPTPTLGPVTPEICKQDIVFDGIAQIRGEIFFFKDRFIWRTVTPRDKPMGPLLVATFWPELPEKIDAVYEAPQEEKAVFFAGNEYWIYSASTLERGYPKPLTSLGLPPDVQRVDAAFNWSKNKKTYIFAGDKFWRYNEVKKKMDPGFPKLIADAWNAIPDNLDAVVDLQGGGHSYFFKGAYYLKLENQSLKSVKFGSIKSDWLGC

Consider `CCCCC/C=C/CCCCCCCc1cccc(O)c1C(=O)O`, for which the IC50 in assay [1] came to 6.5 µM. In the case of `O=C(/C=C/c1ccc(O)c(O)c1)Oc1ccc2c(c1)C(=O)OCC2`, in assay [2], half-maximal inhibition (IC50) required 1.39 µM. Compound `COc1ccc(/C=C/C(=O)O[C@H](C(=O)O)[C@](O)(Cc2ccc(O)c(O)c2)C(=O)O)cc1O` [CIMICIFUGIC ACID B] showed an IC50 in assay [3] of 13.4 µM. Turning to `CCCCCC/C=C\CCCCCCCc1cccc(O)c1C(=O)O` [GINGKOLIC ACID], in assay [1], the half-inhibitory concentration (IC50) is 6.3 µM.
